# Laboratory results: patent publication US7196110B2, “N-substituted tricyclic 3-aminopyrazoles as inhibitors for the treatment of cell proliferative disorders” (Janssen Phamaceutica N.V., priority 2002, dated 2007)
# Target: T1, PDGF-receptor beta enzyme comprising the tyrosine kinase domain (Homo sapiens, UniProt P09619)
# T1 construct: from amino acid 545 to 1106 of GenBank Access NO: AAA36427
# Experiment: Inhibition of PDGF-receptor kinase activity (cell-free, PLC1 peptide, 33P Flashplate)
# Type: biochemical
# Details: PDGF-R kinase activity; for inhibition at 10 µM: compound at 10 uM, read-out: Percent Inhibition @ 10 uM; for IC50: read-out: IC50
# Description: PDGF-R kinase activity was assayed by its ability to phosphorylate one of its target proteins, PLCγ, in a cell-free system, in particular, a PLC1 peptide comprising the tyrosine residue where the phosphorylation occurs was used for the assay.
# 10× Kinase Buffer (500 mM Tris-HCl pH=8, 100 mM MgCl2, 1 mM Na3VO4); 10 mM DTT (final concentration at 1 mM in assay); 10 mM ATP (final concentration at 5 μM in assay); ^33P-γ-ATP (Cat. No.: NEG/602H. 2000-3000 Ci/mmol) purchased from NEN; Purified, soluble, recombinant PDGF-receptor beta enzyme comprising the tyrosine kinase domain (from amino acid 545 to 1106 of GenBank Access NO: AAA36427 ) at 0.4 mg/mL; Enzyme Dilution Buffer (50 mM Tris-HCl pH=8.0, 0.1% BSA); Wash/Stop Buffer (PBS +100 mM EDTA); NEN Streptavidin Flashplates (Cat. No.: SMP-103) which binds to the biotinylated PLC1 peptide but not the PDGF-R enzyme; PLC1 peptide (Biotin-[…]-Amide) at 1 mM in 50 mM Tris-HCL with pH of 8.0.
# Reagents were first mixed according the following regimen:
# The above reaction mixture was dispensed into each well of a Flashplate at 70 μl/well. To test the effect of a compound on PDGF-R kinase activity, the test compound either in a fixed concentration or in serially diluted concentrations in 100% DMSO was added to appropriate wells at 1 μl/well.
# Enzyme PDGF-R was diluted in Enzyme dilution buffer as following:
# The kinase reaction was initiated by adding 30 μl of diluted PDGF-R enzyme solution to each well on the Flashplate containing hot ATP and PLC1, except wells of column 12 rows E through H, which were used to calculate the plate background. The Flashplate was swirled to mix and was incubated at 30° C. for 60 minutes. Then, the reaction mixture was discarded and the Flashplate was washed 3 times each with 200 μl Wash/Stop Buffer. Subsequently, each well on the Flashplate was filled with 200 μl of Wash/Stop buffer. The amount of ^33P retained in each well was measured using a Packard TopCount after the plate was sealed with a transparent plate sealer.
# The percentage of inhibition of the test compound on PDGF-R kinase activity is defined as […].
# In order to test the potency of inhibition of present compounds, an IC50 for an individual compound was measured using the above procedure. As used herein, the IC50 for PDGF-R kinase activity refers to the concentration of an inhibitor at which the activity of the PDGF-R kinase is reduced by one-half as compared with reactions containing no inhibitor.
# T1 sequence (P09619 545-1106): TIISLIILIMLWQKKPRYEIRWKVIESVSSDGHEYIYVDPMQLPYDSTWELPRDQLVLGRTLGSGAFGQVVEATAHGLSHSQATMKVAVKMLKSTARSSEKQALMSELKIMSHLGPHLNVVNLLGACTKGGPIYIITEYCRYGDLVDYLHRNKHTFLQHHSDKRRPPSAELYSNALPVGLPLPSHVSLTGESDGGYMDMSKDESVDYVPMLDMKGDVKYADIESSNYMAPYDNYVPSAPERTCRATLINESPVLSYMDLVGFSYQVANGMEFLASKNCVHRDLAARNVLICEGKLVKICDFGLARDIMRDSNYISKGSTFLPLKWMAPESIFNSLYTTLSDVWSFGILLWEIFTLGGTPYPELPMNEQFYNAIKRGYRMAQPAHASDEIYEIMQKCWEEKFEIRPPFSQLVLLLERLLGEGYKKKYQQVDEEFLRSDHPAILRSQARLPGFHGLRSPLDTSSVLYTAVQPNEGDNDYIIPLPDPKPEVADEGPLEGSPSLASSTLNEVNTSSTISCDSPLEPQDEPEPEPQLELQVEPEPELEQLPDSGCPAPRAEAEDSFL
inhibition at 10 µM [%],IC50 [µM],Compound
30,26.7,"COc1cc2c(cc1OC)-c1n[nH]c(Nc3ccc(N4CCN(C)CC4)cc3)c1C2 [Compound 51, (6,7-Dimethoxy-2,4-dihydro-indeno[1,2-c]pyrazol-3-yl)-[4-(4-methyl-piperazin-1-yl)-phenyl]-amine]"
71,2.4,"c1ccc(Nc2[nH]nc3c2CCc2sccc2-3)cc1 [Compound 52, (4,5-Dihydro-2H-6-thia-1,2-diaza-as-indacen-3-yl)-phenyl-amine]"
94,0.0586,"COc1cc2c(cc1OC)-c1n[nH]c(Nc3ccc(F)c(Cl)c3)c1C2 [Compound 53, (3-Chloro-4-fluoro-phenyl)-(6,7-dimethoxy-2,4-dihydro-indeno[1,2-c]pyrazol-3-yl)-amine]"
76,0.636,"COc1cc2c(cc1OC)-c1n[nH]c(Nc3cc(F)ccc3F)c1C2 [Compound 55, (2,5-Difluoro-phenyl)-(6,7-dimethoxy-2,4-dihydro-indeno[1,2-c]pyrazol-3-yl)-amine]"
36,8.4,"COc1ccc(Cl)cc1Nc1[nH]nc2c1Cc1cc(OC)c(OC)cc1-2 [Compound 56, (5-Chloro-2-methoxy-phenyl)-(6,7-dimethoxy-2,4-dihydro-indeno[1,2-c]pyrazol-3-yl)-amine]"
71,2.15,"COc1cc2c(cc1OC)-c1n[nH]c(Nc3ccccc3C(C)C)c1C2 [Compound 57, (6,7-Dimethoxy-2,4-dihydro-indeno[1,2-c]pyrazol-3-yl)-(2-isopropyl-phenyl)-amine]"
40,8.52,"CCc1ccccc1Nc1[nH]nc2c1Cc1cc(OC)c(OC)cc1-2 [Compound 58, (6,7-Dimethoxy-2,4-dihydro-indeno[1,2-c]pyrazol-3-yl)-(2-ethyl-phenyl)-amine]"
71,1.82,"COc1cc2c(cc1OC)-c1n[nH]c(Nc3ccc(C#N)cc3)c1C2 [Compound 59, 4-(6,7-Dimethoxy-2,4-dihydro-indeno[1,2-c]pyrazol-3-ylamino)-benzonitrile]"
71,0.137,"COc1cc2c(cc1OC)-c1n[nH]c(Nc3cccc(C#N)c3)c1C2 [Compound 61, 3-(6,7-Dimethoxy-2,4-dihydro-indeno[1,2-c]pyrazol-3-ylamino)-benzonitrile]"
85,0.313,"COc1cc2c(cc1OC)-c1n[nH]c(Nc3ccc4c(c3)OCO4)c1C2 [Compound 62, Benzo[1,3]dioxol-5-yl-(6,7-dimethoxy-2,4-dihydro-indeno[1,2-c]pyrazol-3-yl)-amine]"

# Continued, compound first:
Compound,inhibition at 10 µM [%],IC50 [µM]
"Cc1cccc2c1Cc1c-2n[nH]c1Nc1ccccc1 [Compound 23, (5-Methyl-2,4-dihydro-indeno[1,2-c]pyrazol-3-yl)-phenyl-amine]",87,1.94
"Fc1ccc2c(c1)Cc1c-2n[nH]c1Nc1ccccc1 [Compound 24, (6-Fluoro-2,4-dihydro-indeno[1,2-c]pyrazol-3-yl)-phenyl-amine]",71,0.084
"COc1cc2c(cc1OC)-c1n[nH]c(Nc3ccc(C(F)(F)F)cc3)c1C2 [Compound 25, (6,7-Dimethoxy-2,4-dihydro-indeno[1,2-c]pyrazol-3-yl)-(4-trifluoromethyl-phenyl)-amine]",62,4.77
"COc1ccccc1Nc1[nH]nc2c1Cc1cc(OC)c(OC)cc1-2 [Compound 27, (6,7-Dimethoxy-2,4-dihydro-indeno[1,2-c]pyrazol-3-yl)-(2-methoxy-phenyl)-amine]",71,0.655
"COc1cc2c(cc1OC)-c1n[nH]c(Nc3ccccc3C(F)(F)F)c1C2 [Compound 28, (6,7-Dimethoxy-2,4-dihydro-indeno[1,2-c]pyrazol-3-yl)-(2-trifluoromethyl-phenyl)-amine]",96,19.1
"COc1cc2c(cc1OC)-c1n[nH]c(Nc3ccccc3C)c1C2 [Compound 31, (6,7-Dimethoxy-2,4-dihydro-indeno[1,2-c]pyrazol-3-yl)-o-tolyl-amine]",59,0.115
"COc1cc2c(cc1OC)-c1n[nH]c(Nc3ccc(C)cc3)c1C2 [Compound 33, (6,7-Dimethoxy-2,4-dihydro-indeno[1,2-c]pyrazol-3-yl)-p-tolyl-amine]",59,1.41
"COc1cc2c(cc1OC)-c1n[nH]c(Nc3cc(Cl)ccc3Cl)c1C2 [Compound 34, (2,5-Dichloro-phenyl)-(6,7-dimethoxy-2,4-dihydro-indeno[1,2-c]pyrazol-3-yl)-amine]",57,6.99
"O=C1c2ccccc2-c2n[nH]c(Nc3ccccc3)c21 [Compound 35, 3-Phenylamino-2H-indeno[1,2-c]pyrazol-4-one]",88,2.06
"COc1cc2c(cc1OC)-c1n[nH]c(Nc3ccc4cn[nH]c4c3)c1C2 [Compound 37, (6,7-Dimethoxy-2,4-dihydro-indeno[1,2-c]pyrazol-3-yl)-(1H-indazol-6-yl)-amine]",80,1.98
COc1cc2c(cc1OC)-c1n[nH]c(Nc3ccc(N(C)C)cc3)c1C2 [Compound 40],63,5.95
"COc1cc2c(cc1OC)-c1n[nH]c(Nc3cc(OC)c(OC)c(OC)c3)c1C2 [Compound 42, (6,7-Dimethoxy-2,4-dihydro-indeno[1,2-c]pyrazol-3-yl)-(3,4,5-trimethoxy-phenyl)-amine]",85,0.692
"COc1cc2c(cc1OC)-c1n[nH]c(Nc3ccccc3Br)c1C2 [Compound 43, (2-Bromo-phenyl)-(6,7-dimethoxy-2,4-dihydro-indeno[1,2-c]pyrazol-3-yl)-amine]",60,0.195
"COc1cc2c(cc1OC)-c1n[nH]c(Nc3ccc(Br)cc3)c1C2 [Compound 45, (4-Bromo-phenyl)-(6,7-dimethoxy-2,4-dihydro-indeno[1,2-c]pyrazol-3-yl)-amine]",86,2.16
"COc1cc2c(cc1OC)-c1n[nH]c(Nc3cc(Cl)ccc3C)c1C2 [Compound 46, (5-Chloro-2-methyl-phenyl)-(6,7-dimethoxy-2,4-dihydro-indeno[1,2-c]pyrazol-3-yl)-amine]",51,14.2
"COc1ccc(Nc2[nH]nc3c2Cc2cc(OC)c(OC)cc2-3)c(OC)c1 [Compound 47, (6,7-Dimethoxy-2,4-dihydro-indeno[1,2-c]pyrazol-3-yl)-(2,4-dimethoxy-phenyl)-amine]",47,
"COc1ccc(OC)c(Nc2[nH]nc3c2Cc2cc(OC)c(OC)cc2-3)c1 [Compound 48, (6,7-Dimethoxy-2,4-dihydro-indeno[1,2-c]pyrazol-3-yl)-(2,5-dimethoxy-phenyl)-amine]",39,
"COc1ccc(Nc2[nH]nc3c2Cc2cc(OC)c(OC)cc2-3)cc1OC [Compound 49, (6,7-Dimethoxy-2,4-dihydro-indeno[1,2-c]pyrazol-3-yl)-(3,4-dimethoxy-phenyl)-amine]",72,3.07
"OC1c2ccccc2-c2n[nH]c(Nc3ccccc3)c21 (centres unmarked) [Compound 50, 3-Phenylamino-2,4-dihydro-indeno[1,2-c]pyrazol-4-ol]",38,11.4
